Here are results for 1 compound from patent publication US9486402B2, “Compositions containing berberine or analogs thereof for treating rosacea or red face related skin disorders” (Derman Biomedicine Co. Ltd, priority 2009, dated 2016).

One data set has as its system patients with rosacea. The data set can be described thus: Open-label human clinical study on patients with rosacea. The format is in vivo. As to conditions: for overall erythema severity (score 0 to 3): baseline 2.35±0.6; for overall erythema severity (score 0 to 3) / IGA score (7-point, 0 clear to 6 severe): P<0.0001 vs W0; for IGA score (7-point, 0 clear to 6 severe): baseline 4.1±1.3. The method, then:
Method: an open-label clinical study was carried out to determine the efficacy of the topical berberine formulations of this invention for the treatment of rosacea and related skin disorders. Patients included in this study were diagnosed by dermatologists to have clinically defined rosacea. All patients were given 0.1% berberine gel twice a day for 6 weeks. At the time points of treatment initiation, and 2-weeks and 6-weeks after treatment, the patients were evaluated for their rosasea symptoms. The patients were not allowed to use other medications, including antibiotics, for their skin conditions. Only oral antihistamines were allowed for relief of pruritus symptoms. To evaluate the efficacy of treatment, the standard grading system for rosacea developed by the National Rosacea Society Expert Committee on the Classification and Staging of Rosacea was used^3. Additionally, the investigator's global assessment (IGA) and overall erythema severity of the patients were scored at week 0, week 2, and week 6 of berberine therapy. The IGA was expressed according to a 7-point scoring system with a range of 0 (clear) to 6 (severe). The severity of overall facial erythema and telangiectasia, respectively, was graded as ‘none’, ‘mild’, ‘moderate’, or ‘severe’ with scores from 0 to 3. The grading system used to assess overall facial erythema severity was described previously^38. Results: a total of 20 patients with rosacea (18 females and 2 males) were enrolled in this study. The mean age of the study population was 43.3 (19-85) years. The mean duration of rosacea prior to berberine treatment was 4 (1-24) years. Among the 20 patients with rosacea, 13 cases were of erythematotelangiectatic type (65%), 7 cases papulopustular type (35%), and […].

Data set [1] deals with IL-8 release from human keratinocytes. The data set can be described thus: Cathelicidin peptide (LL-37)-induced IL-8 release from human keratinocytes, ELISA. The format is cell-based. The method, then: (§1) For our in vitro study, berberine (Sigma, St. Louis, Mo., USA) was dissolved in water, methanol, ethanol or dimethyl sulfoxide (DMSO). Normal human keratinocytes (Invitrogen, CA, USA) were grown in EpiLife medium (Invitrogen, CA, USA) supplemented with 0.06 mM Ca^+2, 1% EpiLife defined growth supplement, and 1% penicillin/streptomycin (Invitrogen, CA, USA). Cells were grown at 37° C. in a humidified atmosphere of 5% CO2 and 95% air. The human keratinocytes were cultured to confluence and treated with synthetic cathelicidin peptides (LL-37) (6.4 μM) for 16 h to induce inflammatory response similar to that observed in rosacea. Some of the cathelicidin-treated keratinocyte cultures were co-incubated with berberine of concentrations from 1.25 μg/ml to 12.5 μg/ml. The keratinocytes cultures treated with cathrlicidin or cathrlicidin with 1% ethanol and without berberine were used as negative controls. Supernatants were collected and placed in a sterile 96-well plate for ELISA of interleukin-8 (IL-8), interleukin-1 alpha (IL-1 alpha), and […] (VEGF) in accordance with the manufacturer's instructions (R&D Systems, MN, USA). […]
(§2) FIG. 1. […] Keratinocytes were stimulated by cathelicidin peptide (LL-37), and the release of IL-8 (FIG. 1A), IL-1 alpha (FIG. 1B) and VEGF (FIG. 1C) by the keratinocytes was evaluated by ELISA assay.

Data set [2] deals with VEGF release from human keratinocytes. The data set can be described thus: Cathelicidin peptide (LL-37)-induced VEGF release from human keratinocytes, ELISA. The settings on record: 1.25 μg/ml berberine; LL-37 6.4 μM, 16 h; vs cathelicidin peptide with 1% ethanol control; P<0.05. The format is cell-based. The method, then: as §1, §2
In general terms: ELISA stands for enzyme-linked immunosorbent assay.

Data set [3] deals with cathelicidin-induced lesions. Briefly: Mouse model of rosacea (subcutaneous cathelicidin peptide), topical treatment. The format is in vivo, BALB/c and C57BL/6 mice. The settings on record: topical formulation containing 0.1% berberine twice a day for 2 days; 4th day; vs controls (n=3 each). The method, then:
The animal model of rosacea: the animal model of rosacea was adopted from previous reported^18. Briefly, BALB/c and C57BL/6 mice, shaved 24 h before treatments, were injected subcutaneously on the back with 40 μl of cathelicdin peptide (320 μM) twice a day. Forty-eight hours after the initial injection (four injections in total), erythema and edema were observed on the injected site mimicking the clinical features of rosacea.
In our experiments, cathelicidin-injected mice were treated with or without topical berberine twice a day to observe the effect of berberine on reducing inflammation. […] The cathelicidin-injected mice were then divided into 2 groups, which were treated with berberine (n=3) or not treated with berberine (n=3; as controls), respectively, for a subsequent 2 days. The topical formulation containing 0.1% berberine was applied on the cathelicidin-induced lesions twice a day. The erythematous or inflammatory lesions lasted for more than 7 days in the control group.

Data set [4] concerns IL-1 alpha release from human keratinocytes. Briefly: Cathelicidin peptide (LL-37)-induced IL-1 alpha release from human keratinocytes, ELISA. Format: cell-based. The settings on record: 1.25 μg/ml berberine; LL-37 6.4 μM, 16 h; vs cathelicidin peptide with 1% ethanol control; P<0.05. The method, then:
as §1, §2

[5] abbreviates: 0.1% berberine gel twice a day, end of treatment (6 weeks), 19 of the 20 patients.

As to `COc1ccc2cc3[n+](cc2c1OC)CCc1cc2c(cc1-3)OCO2` [berberine, 5,6-dihydro-9,10-dimethoxybenzo(g)-1,3-benzodioxolo (5,6-a) quinolizinium], in the data set with patients with rosacea (0.1% berberine gel twice a day for 6 weeks, 2 cases of 20, tolerable without discontinuation), the “cases with transient itchy/stinging sensation in the area of topical medication” value turned out to be 10%. Besides, the serious adverse events entry with patients with rosacea (0.1% berberine gel twice a day for 6 weeks, 20 patients) is on record as “no serious adverse event”. Besides, the “patients with a mild (1) to none (0) erythema rating” value in the data set with patients with rosacea (setting [5]) was 95%. Further, the “patients with a mild (2) to clear (0) IGA rating” value in the data set with patients with rosacea (setting [5]) is reported as 95%. Further, the “overall erythema severity (score 0 to 3)” value in the data set on patients with rosacea (0.1% berberine gel twice a day, week 2) is given as 1.5±0.5; in the data set on patients with rosacea (0.1% berberine gel twice a day, week 6) it was 0.95±0.4. Moreover, the “IGA score (7-point, 0 clear to 6 severe)” value in the data set on patients with rosacea (0.1% berberine gel twice a day, week 2, 20 patients) amounted to 2.6±0.9; in the data set on patients with rosacea (0.1% berberine gel twice a day, week 6, 20 patients), 1.6±0.8. In data set [1] (0-12.5 μg/ml, especially when concentration larger than 6.25 μg/ml), the “inhibition of cathelicidin induced inflammatory response (IL-8, IL-1 alpha, VEGF release)” value was “significant inhibit cathelicidin induced inflammatory response in a dose-dependent manner”. Further, the “decrease of the release of IL-8” value in data set [1] (1.25 μg/ml berberine, LL-37 6.4 μM, 16 h, vs cathelicidin peptide with 1% ethanol control, P<0.05) was 31.4%. Besides, the “decrease of the release of VEGF” value in data set [2] is listed as 29.1%. Moreover, the “erythema and vascular dilatation” value in data set [3] is reported as “significant reduced”. The “decrease of the release of IL-1 alpha” value in data set [4] turned out to be 24.9%.
